Patent publication US20240368120A1 (Terns Pharmaceuticals, Inc., priority 2023, published 2024)

Target: T1, human GLP-1R receptor (Homo sapiens, UniProt P43220)
T1 construct: expressed in transfected cells
Test: GLP-1R low expression cell assay (cAMP TR-FRET, CHO-K1_hGLP-1Rlow_clone10 cells)
Format: cell-based
Settings: for EC50: cAMP TR-FRET, 30 min at 25° C.
In short: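 Readout is cAMP TR-FRET after 30 min compound stimulation at 25 °C of a low-GLP-1R-expressing CHO-K1 clone (1,000 cells/well), with 10-point 3-fold serial dilutions. Percent activation versus a control GLP-1 peptide, from duplicates, was Hill-fitted to give EC50.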

[1] = maximum activation relative to control GLP-1 peptide agonist

T1 sequence (P43220 24-463): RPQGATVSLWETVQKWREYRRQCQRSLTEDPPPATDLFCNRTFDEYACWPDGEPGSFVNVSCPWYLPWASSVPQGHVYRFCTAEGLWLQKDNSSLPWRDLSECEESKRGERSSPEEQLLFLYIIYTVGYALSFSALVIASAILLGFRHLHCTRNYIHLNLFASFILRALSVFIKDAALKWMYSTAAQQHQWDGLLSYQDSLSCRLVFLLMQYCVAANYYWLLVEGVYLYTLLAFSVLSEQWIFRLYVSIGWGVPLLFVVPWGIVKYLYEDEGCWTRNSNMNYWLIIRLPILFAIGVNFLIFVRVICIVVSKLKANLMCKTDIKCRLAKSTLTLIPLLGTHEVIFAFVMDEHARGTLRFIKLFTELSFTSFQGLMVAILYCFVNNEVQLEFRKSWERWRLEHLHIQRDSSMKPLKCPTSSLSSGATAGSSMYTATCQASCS

| EC50 [nM] | Emax [1] [%] | GLP-1R Low Expression Cell Assay Emax (%) [1] | SMILES |
| --- | --- | --- | --- |
| > 1000 | 50 to 85 |  | Cn1c(CN2CCC(c3ccc4ccn(Cc5ccc(Cl)cc5F)c4n3)CC2)nc2c(OC(F)F)cc(C(=O)O)cc21 [Compound 205, 2-((4-(1-(4-Chloro-2-fluorobenzyl)-1H-pyrrolo[2,3-b]pyridin-6-yl)piperidin-1-yl)methyl)-4-(difluoromethoxy)-1-methyl-1H-benzo[d]imidazole-6-carboxylic acid] |
| 10 to 100 | > 85 |  | [2H]C([2H])(C)Oc1cc(C(=O)O)cc2c1nc(CN1CCC(c3cccc(OCc4ccc(Cl)cc4F)c3)CC1)n2C [Compound 284, 2-((4-(3-((4-Chloro-2-fluorobenzyl)oxy)phenyl)piperidin-1-yl)methyl)-4-(ethoxy-1,1-d2)-1-methyl-1H-benzo[d]imidazole-6-carboxylic acid] |
| 10 to 100 |  |  | Cn1c(CN2CCC(c3cccc(OCc4ccc(Cl)cc4)n3)CC2)nc2c(OC(F)F)cc(C(=O)O)cc21 [Compound 252, 2-((4-(6-((4-Chlorobenzyl)oxy)pyridin-2-yl)piperidin-1-yl)methyl)-4-(difluoromethoxy)-1-methyl-1H-benzo[d]imidazole-6-carboxylic acid] |
| 10 to 100 | > 85 |  | Cn1c(CN2CCC(c3cccc(OCc4ccc(Cl)cc4F)n3)CC2)nc2c3c(c(C(=O)O)cc21)OCO3 [Compound 275, 7-((4-(6-((4-Chloro-2-fluorobenzyl)oxy)pyridin-2-yl)piperidin-1-yl)methyl)-6-methyl-6H-[1,3]dioxolo[4′,5′:3,4]benzo[1,2-d]imidazole-4-carboxylic acid] |
| > 1000 | < 25 |  | CN1C(=O)[C@H](c2ccc(Cl)cc2F)Oc2c(C3CCN(Cc4nc5c(OC(F)F)cc(C(=O)O)cc5n4C)CC3)cccc21 [Compound 241, (S)-2-((4-(2-(4-chloro-2-fluorophenyl)-4-methyl-3-oxo-3,4-dihydro-2H-benzo[b][1,4]oxazin-8-yl)piperidin-1-yl)methyl)-4-(difluoromethoxy)-1-methyl-1H-benzo[d]imidazole-6-carboxylic acid] |
| 10 to 100 | > 85 |  | Cn1c(CN2CC=C(c3cccc(OCc4ccc(Cl)cc4F)n3)CC2)nc2c(OC(F)F)cc(C(=O)O)cc21 [Compound 155, 2-((6-((4-Chloro-2-fluorobenzyl)oxy)-3′,6′-dihydro-[2,4′-bipyridin]-1′(2′H)-yl)methyl)-4-(difluoromethoxy)-1-methyl-1H-benzo[d]imidazole-6-carboxylic acid] |
| 10 to 100 | > 85 |  | [2H]C([2H])(Oc1cccc(C2CCN(C([2H])([2H])c3nc4c(OC(F)F)cc(C(=O)O)cc4n3C)CC2)n1)c1ccc(Cl)cc1F [Compound 321, 2-((4-(6-((4-Chloro-2-fluorophenyl)methoxy-d2)pyridin-2-yl)piperidin-1-yl)methyl-d2)-4-(difluoromethoxy)-1-methyl-1H-benzo[d]imidazole-6-carboxylic acid] |
| 10 to 100 | > 85 |  | Cn1c(CN2CCC(c3cccc(OCc4ccc(Cl)cc4F)n3)CC2)nc2c3c(c(C(=O)O)cc21)OCCO3 [Compound 311, 2-((4-(6-((4-chloro-2-fluorobenzyl)oxy)pyridin-2-yl)piperidin-1-yl)methyl)-3-methyl-7,8-dihydro-3H-[1,4]dioxino[2′,3′:3,4]benzo[1,2-d]imidazole-5-carboxylic acid] |
| > 1000 | < 25 |  | Cn1c(CN2CCC(c3cccc4c3OC[C@H](c3ccc(C#N)cc3F)O4)CC2)nc2c(OC(F)F)cc(C(=O)O)cc21 [Compound 326, (S)-2-((4-(2-(4-Cyano-2-fluorophenyl)-2,3-dihydrobenzo[b][1,4]dioxin-5-yl)piperidin-1-yl)methyl)-4-(difluoromethoxy)-1-methyl-1H-benzo[d]imidazole-6-carboxylic acid] |
| 10 to 100 | > 85 |  | Cn1c(CN2CCC(c3cccc(OCc4ccc(C#N)cc4F)n3)CC2)nc2c(OC(F)(F)F)cc(C(=O)O)cc21 [Compound 125, 2-((4-(6-((4-Cyano-2-fluorobenzyl)oxy)pyridin-2-yl)piperidin-1-yl)methyl)-1-methyl-4-(trifluoromethoxy)-1H-benzo[d]imidazole-6-carboxylic acid] |
| 100 to 1000 | > 85 |  | CCOc1cc(C(=O)O)cc2c1nc(CN1CCC(c3cccc4c3OC[C@@H](c3ccc(Cl)cc3F)O4)CC1)n2C [Compound 269, (R)-2-((4-(2-(4-chloro-2-fluorophenyl)-2,3-dihydrobenzo[b][1,4]dioxin-5-yl)piperidin-1-yl)methyl)-4-ethoxy-1-methyl-1H-benzo[d]imidazole-6-carboxylic acid] |
| 100 to 1000 | > 85 |  | COc1cc(C(=O)O)cc2c1nc(CN1CCC(c3cccc(OCc4ccc(C#N)cc4F)n3)CC1)n2C(F)F [Compound 147, 2-((4-(6-((4-Cyano-2-fluorobenzyl)oxy)pyridin-2-yl)piperidin-1-yl)methyl)-1-(difluoromethyl)-4-methoxy-1H-benzo[d]imidazole-6-carboxylic acid] |
| 10 to 100 | > 85 |  | COc1ccc(COc2cccc(C3CCN(Cc4nc5c(OC(F)F)cc(C(=O)O)cc5n4C)CC3)n2)c(F)c1 [Compound 228, 4-(Difluoromethoxy)-2-((4-(6-((2-fluoro-4-methoxybenzyl)oxy)pyridin-2-yl)piperidin-1-yl)methyl)-1-methyl-1H-benzo[d]imidazole-6-carboxylic acid] |
| 10 to 100 | 50 to 85 |  | C[C@@H](c1nc2c(OC(F)F)cc(C(=O)O)cc2n1C)N1CCC(c2cccc(OCc3ccc(C#N)cc3F)n2)CC1 [Compound 119, (S)-2-(1-(4-(6-((4-Cyano-2-fluorobenzyl)oxy)pyridin-2-yl)piperidin-1-yl)ethyl)-4-(difluoromethoxy)-1-methyl-1H-benzo[d]imidazole-6-carboxylic acid] |

More lines, now with the values behind:

| SMILES | EC50 [nM] | Emax [1] [%] | GLP-1R Low Expression Cell Assay Emax (%) [1] |
| --- | --- | --- | --- |
| CCOc1cc(-c2nc(=O)o[nH]2)cc2c1nc(CN1CCC(c3cccc(OCc4ccc(C#N)cc4F)n3)CC1)n2C [Compound 260, 4-(((6-(1-((4-ethoxy-1-methyl-6-(5-oxo-2,5-dihydro-1,2,4-oxadiazol-3-yl)-1H-benzo[d]imidazol-2-yl)methyl)piperidin-4-yl)pyridin-2-yl)oxy)methyl)-3-fluorobenzonitrile] | 10 to 100 | > 85 |  |
| N#Cc1ccc(COc2cccc(C3CCN(Cc4nc5ccc(C(=O)O)c(O)c5n4C[C@@H]4CCO4)CC3)n2)c(F)c1 [Compound 172, (S)-2-((4-(6-((4-cyano-2-fluorobenzyl)oxy)pyridin-2-yl)piperidin-1-yl)methyl)-7-hydroxy-1-(oxetan-2-ylmethyl)-1H-benzo[d]imidazole-6-carboxylic acid] |  |  | + (Emax is <25%) |
| Cn1c(Cc2ccc(Oc3cccc(COc4ccc(Cl)cc4F)n3)cc2F)nc2c(OC(F)F)cc(C(=O)O)cc21 [Compound 367, 2-(4-((6-((4-Chloro-2-fluorophenoxy)methyl)pyridin-2-yl)oxy)-2-fluorobenzyl)-4-(difluoromethoxy)-1-methyl-1H-benzo[d]imidazole-6-carboxylic acid] | > 1000 | > 85 |  |
| N#Cc1ccc(COc2cccc(C3CCN(Cc4nc5cnc(C(=O)O)cc5n4C[C@@H]4CCO4)CC3)n2)c(F)c1 [Compound 378, (S)-2-((4-(6-((4-Cyano-2-fluorobenzyl)oxy)pyridin-2-yl)piperidin-1-yl)methyl)-1-(oxetan-2-ylmethyl)-1H-imidazo[4,5-c]pyridine-6-carboxylic acid] | 10 to 100 | > 85 |  |
| CC(C)Oc1cc(C(=O)O)cc2c1nc(CN1CCC(c3cccc4c3O[C@@](C)(c3ccc(Cl)cn3)O4)CC1)n2C [Compound 84, (S)-2-((4-(2-(5-Chloropyridin-2-yl)-2-methylbenzo[d][1,3]dioxol-4-yl)piperidin-1-yl)methyl)-4-isopropoxy-1-methyl-1H-benzo[d]imidazole-6-carboxylic acid] | < 10 | > 85 |  |
| C[C@]1(c2ccc(Cl)cn2)Oc2cccc(C3CCN(Cc4nc5cc(C(=O)O)c6c(c5n4C[C@@H]4CCO4)OCCO6)CC3)c2O1 [Compound 99, 2-((4-((S)-2-(5-Chloropyridin-2-yl)-2-methylbenzo[d][1,3]dioxol-4-yl)piperidin-1-yl)methyl)-1-(((S)-oxetan-2-yl)methyl)-7,8-dihydro-1H-[1,4]dioxino[2′,3′:3,4]benzo[1,2-d]imidazole-5-carboxylic acid] | > 1000 | > 85 |  |
| CN(c1nc2c(OC(F)F)cc(C(=O)O)cc2n1C[C@@H]1CCO1)[C@H]1CC[C@@H](c2cccc(OCc3ccc(C#N)cc3F)n2)CC1 [Compound 131, 2-(((1s,4R)-4-(6-((4-cyano-2-fluorobenzyl)oxy)pyridin-2-yl)cyclohexyl) (methyl)amino)-4-(difluoromethoxy)-1-(((S)-oxetan-2-yl)methyl)-1H-benzo[d]imidazole-6-carboxylic acid] | 100 to 1000 | > 85 |  |
| COCCOc1cc(C(=O)O)cc2[nH]c(CN3CCC(c4cccc5c4O[C@@](C)(c4ccc(Cl)cn4)O5)CC3)nc12 [Compound 74, (S)-2-((4-(2-(5-Chloropyridin-2-yl)-2-methylbenzo[d][1,3]dioxol-4-yl)piperidin-1-yl)methyl)-4-(2-methoxyethoxy)-1H-benzo[d]imidazole-6-carboxylic acid] | 10 to 100 | > 85 |  |
| CC(F)(F)c1cc(C(=O)O)cc2c1nc(CN1CCC(c3cccc4c3O[C@@](C)(c3ccc(Cl)cn3)O4)CC1)n2C[C@@H]1CCO1 [Compound 57, 2-((4-((S)-2-(5-Chloropyridin-2-yl)-2-methylbenzo[d][1,3]dioxol-4-yl)piperidin-1-yl)methyl)-4-(1,1-difluoroethyl)-1-(((S)-oxetan-2-yl)methyl)-1H-benzo[d]imidazole-6-carboxylic acid] | < 10 |  |  |
